Here are results for one compound from patent US8841310B2, “Combinations of a pyrimidine containing NNRTI with RT inhibitors” (Janssen R & D Ireland, priority 2003, dated 2014).

Read-outs that look alike come from different tables or passages of the source.

Assay in all cases: MT-4 cell-based antiviral assay, SDM mutant
For test [1], the system named is HIV-1 mutant 190S. The following applies: Human immunodeficiency virus 1, MT4. As for the experimental part: (§1) Compound E-TMC278 was tested in a cell-based assay, using natural host cells of HIV. MT-4 cells (a cell line of human T cells) were infected with HIV-1 (wild type or mutants) and exposed to different concentrations of antiviral compound in the presence of 10% fetal calf serum. Cytotoxicity was determined in parallel with the antiviral activity so that the selectivity of the antiviral effect could be assessed. Active compounds have to penetrate the cell membrane in order to interfere with replication steps inside the cell.
(§2) After four days of incubation at 37° C., the viability of the HIV and mock-infected cells was assessed by an automated tetrazolium-based calorimetric assay. This method enabled the calculation of both the 50% inhibitory concentration for inhibition of viral cytopathicity (IC50), the IC90, and the 50% cytotoxic concentration (CC50). The ratio CC50/IC50, also called the selectivity index, is an indication of the specificity of the antiviral effect. Tested HIV strains included: Wild type (wt) HIV-1; a panel of single and double mutants, obtained by site-directed mutagenesis (SDM), and a panel of clinical isolates, selected for resistance against NNRTIs.
(§3) A limited panel of HIV-1 mutants was constructed using site-directed mutagenesis (SDM) and homologous recombination techniques. […] Nevirapine (NVP) and efavirenz (EFV) were included as controls.

Test [2] concerns HIV-1 mutant 181C. How it is done:
as §1, §2, §3

Test [3] relates to HIV-1 mutant 234I. The following applies: Human immunodeficiency virus 1, MT4. As for the experimental part: as §1, §2, §3
The test system of test [4] is HIV-1 mutant 106A. Particulars: Human immunodeficiency virus 1, MT4. How it is done:
as §1, §2, §3

The test system of test [5] is HIV-1 double mutant 227L + 106A. How it is done:
as §1, §2, §3

Test [6] deals with HIV-1 double mutant 100I + 103N. As for the experimental part: as §1, §2, §3
Setting [7] is: Human immunodeficiency virus 1, MT4.
Where [8] appears, read: Human immunodeficiency virus 1, MT4, read-out: IC50 value.

For `Cc1cc(/C=C/C#N)cc(C)c1Nc1ccnc(Nc2ccc(C#N)cc2)n1` [E-TMC278, (E)-4-[[4-[[4-(2-cyanoethenyl)-2,6-dimethylphenyl]-amino]-2-pyrimidinyl]-amino]-benzonitrile], the concentration for half-maximal inhibition (IC50) is 0.1 nM in test [1]; 1.3 nM in test [2] (setting [7]); 1.3 nM in test [2] (setting [8]); 0.3 nM in test [3]; 0.2 nM in test [4]; 1 nM in test [5] (Human immunodeficiency virus 1, MT4, 96 h). The half-inhibitory concentration (IC50) in test [5] (setting [8]) is 1 nM; in test [6] (Human immunodeficiency virus 1, MT4, 96 h, 100I + 103N, MT-4 cells), around 8 nM; in test [6] (Human immunodeficiency virus 1, MT4, read-out: IC50 value, Table 1, HIV RT mutation: 100I + 103N) it was 7.9 nM. Further, the 90% effect concentration (IC90) in test [6] (setting [7]) is around 16 nM.
